Paper PMC6289942, “Development of a NS2B/NS3 protease inhibition assay using AlphaScreen® beads for screening of anti-dengue activities” (Heliyon, 2018)
Read-outs that look alike come from different tables or passages of the source. Where a SMILES comes first, the peptide text is derived from it. [ ]: non-standard residue; d: D form. The star is where a group is joined. Sta = CC(C)C[C@H](N)[C@@H](O)CC(=O)O; Isovaleryl = CC(C)CC(=O)*

How the values were obtained:
dengue NS2B/NS3 protease = system: dengue NS2B/NS3 protease; set-up: method as in PMID 11581268; settings: cited from earlier work
NS2B/NS3 protease [1] = target: T1, NS2B/NS3 protease (Dengue virus type 2, UniProt P14340); assay: Protease assay using fluorogenic peptide substrate (BOC-Gly-Arg-Arg-AMC); type: biochemical
T1 construct: active site of the serine protease domain of the NS2B/NS3 protease; made in house; host or cells: Escherichia coli XL 1-Blue MRF
Experimental: Dengue NS2B/NS3 protease enzyme was expressed and purified as previously described. Briefly, NS2B/NS3 expression plasmid was propagated in Escherichia coli strain XL 1-Blue MRF (Agilent Technologies, Santa Clara, CA).The enzyme was isolated and purified using Ni^2+-NTA (nickel-nitrilotriacetic acid) resin-based column. The specific proteolytic activity of NS2B/NS3 protease was determined using similar formula as published for other proteases. Protease assay using fluorogenic peptide susbtrate (BOC-Gly-Arg-Arg-AMC) was also used to determine the NS2B/NS3 inhibition activities of the controls and derivatives. […] Cleavage of the substrate by NS2B/NS3 protease and detection of the fluorescence signal were determined using Envision 2104 Multilabel Plate Reader (Perkin Elmer, Boston, MA, USA) at excitation and emission wavelength of 385 nm and 465 nm, respectively. […]
IC50 values were derived based on non-linear regression analysis computed using GraphPad Prism 5.0 (GraphPad Software, La Jolla, CA, USA). […] The zʹ factor was calculated as described by Zhang and co-workers. zʹ factor = 1–3×(σH+σL)/|μH−μL|, where σH and σL represent the standard deviations of the AlphaScreen® signal of the substrate in the absence (high signal, H) and presence (low signal, L) of the protease, and μH and μL represent the mean values of high signal and low signal, respectively. […]

NS2B/NS3 protease [2] = target: T1, NS2B/NS3 protease; assay: NS2B/NS3 protease inhibition assay using AlphaScreen beads; type: biochemical
Experimental: The peptide substrate used in this assay has a known NS2B/NS3 cleavage site between lysine (K), and serine (S) (GRK ↓ SLT), and is a part of a sequence of dengue polyprotein precursor (NS3/NS4A) as reported by Khumtong and co-workers. The peptide substrate was tagged with a specific sequence ([…]) at N-terminal and polyhistidine at C-terminal. This specific sequence has a binding affinity towards StrepTactin®, an engineered streptavidin [37]. Glycine linkers were added on both sides of untagged peptide substrate (Fig. 1a and b). To determine the extent of N-terminal labelling on the peptide substrate, competitive displacement assay using AlphaScreen® TruHits Detection Kit (Perkin Elmer, USA) consisting of StrepTactin® donor beads and biotinylated acceptor beads was carried out. On the other hand, to ensure that the peptide substrate is adequately tagged with polyhistidine on the C-terminal, competitive binding assay using Histidine (Nickel Chelate) Detection Kit (Perkin Elmer, USA) was carried out. This kit comprises of both StrepTactin® donor beads and nickel chelate acceptor beads.
In general, AlphaScreen® experiments were carried out in white 384-well plates (Perkin Elmer, Boston, MA, USA) in a total reaction volume of 25 μL under subdued light. […] The 384-well plate was read using Envision 2104 Multilabel Plate Reader (Perkin Elmer, Boston, MA, USA) according to AlphaScreen® settings (excitation and emission wavelength at 680nm and 520-620nm, respectively). […] After incubating for 1 h, 5 μL of donor beads and acceptor beads were added, followed by 1 h incubation at room temperature prior to reading of signal. […] The optimum conditions were determined based on the maximum signal obtained from well containing peptide alone and minimum signal produced by well containing peptide substrate, enzyme and beads, indicating maximum cleavage of the NS2B/NS3 enzyme on the substrate and lowest background signal. […] Since the amount obtained for diversity 0713 was in minute quantity and was insufficient for subsequent testing, diversity 0713 was not used as control in this study. […]

DENV2 protease = system: DENV2 protease; set-up: method as in PMID 16621533; settings: cited from earlier work; for inhibition of protease activity: 80 ppm (200 μM) ref 21; for Ki: protease assay ref 21
[3] = Solubility of compounds for screening (DMSO stock); type: physicochemical; settings: needed 10% v/v DMSO in the assay

T1 sequence (P14340 1476-1653): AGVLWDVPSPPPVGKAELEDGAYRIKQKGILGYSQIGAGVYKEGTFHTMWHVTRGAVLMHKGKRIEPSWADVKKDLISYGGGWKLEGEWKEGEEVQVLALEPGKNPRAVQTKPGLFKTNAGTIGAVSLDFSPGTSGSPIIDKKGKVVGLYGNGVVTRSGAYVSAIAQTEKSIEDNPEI
T1 sequence (P14340 1346-1475): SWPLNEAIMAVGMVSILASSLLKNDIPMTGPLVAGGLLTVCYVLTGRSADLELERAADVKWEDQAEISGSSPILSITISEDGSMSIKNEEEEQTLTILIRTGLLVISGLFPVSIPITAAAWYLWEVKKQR

Molecule: N=C(N)c1ccccc1 [benzamidine]
- enzyme inhibition (in words) (dengue NS2B/NS3 protease): no enzyme inhibition

Molecule: CC(C)CC(=O)N[C@H](C(=O)N[C@H](C(=O)N[C@@H](CC(C)C)[C@@H](O)CC(=O)N[C@@H](C)C(=O)N[C@@H](CC(C)C)[C@@H](O)CC(=O)O)C(C)C)C(C)C [pepstatin A] (Isovaleryl-VV[Sta]A[Sta]-OH)
- enzyme inhibition (in words) (dengue NS2B/NS3 protease): no enzyme inhibition

Molecule: COc1cc(O)c(C(=O)[C@@H]2[C@H](CC=C(C)C)C(C)=CC[C@H]2c2ccccc2)c(O)c1 [Panduratin A]
- IC50 (NS2B/NS3 protease [1]): 211 µM
- IC50 (NS2B/NS3 protease [2]): > 100 µM
- inhibition at 100 µM (NS2B/NS3 protease [2]; 100 μM, AlphaScreen assay, read-out: maximum inhibition at the highest concentration tested): > 50%
- inhibition of protease activity (DENV2 protease): 65–80%
- Ki (DENV2 protease): 25 µM

Molecule: Cl.NCCc1ccc(S(=O)(=O)F)cc1 [4-(2-aminoethyl) benzenesulfonyl fluoride.hydrochloride]
- inhibition of enzyme (dengue NS2B/NS3 protease; 500 μM ref 59): 20–30%

Molecule: Aprotinin
- IC50 (NS2B/NS3 protease [1]; protease assay, fluorogenic substrate, 1 h at 37 °C, read-out: IC50): 0.15 µM
- IC50 (NS2B/NS3 protease [2]; AlphaScreen assay, read-out: IC50): 0.35 µM
- IC50 (dengue NS2B/NS3 protease; published value, different assay system ref 59): 0.065 µM

Molecule: c1ccc(CNc2nc(SCc3ccccc3)c3ncn(Cc4ccccc4)c3n2)cc1 [Compound 10, N, 9-dibenzyl-6-(benzylsulfanyl)-9H-purin-2-amine]
- solubility (in words) [3]: low solubility

Molecule: Cc1ccc(S(=O)(=O)N[C@@H](CCCCN)C(=O)CCl)cc1.Cl [N-Tosyl-L-lysine chloromethyl ketone.hydrochloride]
- enzyme inhibition (in words) (dengue NS2B/NS3 protease): no enzyme inhibition

Molecule: Nc1nc(SCc2ccccc2)c2ncn(Cc3ccccc3)c2n1 [Compound 9, 9-benzyl-6-(benzylsulfanyl)-9H-purin-2-amine]
- solubility (in words) [3]: low solubility

Molecule: Cl.N=C(N)c1ccc(CS(=O)(=O)F)cc1 [4-Amidinophenylmethanesulfonyl fluoride.hydrochloride]
- enzyme inhibition (in words) (dengue NS2B/NS3 protease): no enzyme inhibition

Molecule: Nc1nc(SCc2ccccc2)c2[nH]cnc2n1 [Compound 8, 6-(benzylsulfanyl)-9H-purin-2-amine]
- solubility (in words) [3]: low solubility

Molecule: O=S(=O)(F)Cc1ccccc1 [phenylmethylsulfonyl fluoride]
- enzyme inhibition (in words) (dengue NS2B/NS3 protease): no enzyme inhibition

Molecule: CC(=O)N[C@@H](CC(C)C)C(=O)N[C@@H](CC(C)C)C(=O)N[C@H](C=O)CCCNC(=N)N [leupeptin]
- enzyme inhibition (in words) (dengue NS2B/NS3 protease): no enzyme inhibition

Molecule: Fc1ccc(C=Nc2nc(S)c3nc[nH]c3n2)cc1 [Compound 12, 2-(4-fluorobenzylideneamino)-9H-purine-6-thiol]
- solubility (in words) [3]: low solubility

Molecule: CC(C)=CC[C@@H]1C(C)=CC[C@@H](c2ccccc2)[C@@H]1C(=O)c1c(O)cc(O)cc1O [4-hydroxypanduratin A]
- inhibition of protease activity (DENV2 protease): 65–80%
- Ki (DENV2 protease): 21 µM

Molecule: c1ccc(CSc2nc(N(Cc3ccccc3)Cc3ccccc3)nc3c2ncn3Cc2ccccc2)cc1 [Compound 11, N, N, 9-tribenzyl-6-(benzylsulfanyl)-9H-purin-2-amine]
- solubility (in words) [3]: low solubility

Molecule: Cc1ccc(S(=O)(=O)N[C@@H](Cc2ccccc2)C(=O)CCl)cc1 [N-Tosyl-L-phenylalanine chloromethyl ketone]
- inhibition of enzyme (dengue NS2B/NS3 protease; 1 mM ref 59): 20–30%

B1: soybean trypsin inhibitor: serine protease inhibitor (protein, UniProt P01070 25-205, looked up)
Trypsin inhibitor A: DFVLDNEGNPLENGGTYYILSDITAFGGIRAAPTGNERCPLTVVQSRNELDKGIGTIISSPYRIRFIAEGHPLSLKFDSFAVIMLCVGIPTEWSVVEDLPEGPAVKIGENKDAMDGWFRLERVSDDEFNNYKLVFCPQQAEDDKCGDIGISIDHDDGTRRLVVSKNKPLVVQFQKLDKESL
- enzyme inhibition (in words) (dengue NS2B/NS3 protease): no enzyme inhibition
